Patent publication US20230063238A1, “IMMUNOMODULATORS” (Bristol-Myers Squibb Company, priority 2020, published 2023)
Positions of bridges follow the written chain, without caps; N, C: chain ends. Non-standard residues stand in square brackets, D forms with d. Residues, ends and D or L forms follow the SMILES beside them. *: point of attachment. Trp(1-CH2CO2Me) = COC(=O)Cn1cc(C[C@H](N)C(=O)O)c2ccccc21; Trp(1-CH2COOH) = N[C@@H](Cc1cn(CC(=O)O)c2ccccc12)C(=O)O; Hyp = O=C(O)[C@@H]1C[C@@H](O)CN1; X8 = O=C(Nc1cc(F)cc(F)c1)C(=O)*; Methoxyoxalyl = COC(=O)C(=O)*; X3 = O=C(NCc1ccc(F)cc1)C(=O)*; NMeNle = CCCC[C@H](NC)C(=O)O; X6 = CN1CCN(C(=O)C(=O)*)CC1; X1 = O=C(Oc1ccccc1)C(=O)*; NMeA = CN[C@@H](C)C(=O)O; Dab = NCC[C@H](N)C(=O)O; Dap = NC[C@H](N)C(=O)O

The compounds below were run against T1, PD-1/PD-L1 (Homo sapiens, UniProt Q9NZQ7) (assay: PD-1/PD-L1 Homogenous Time-Resolved Fluorescence (HTRF) binding assay). Conditions: PD-L1-His 10 nM final, PD-1-Ig 20 nM final; inhibitors pre-incubated with PD-L1-His for 15 m.
T1 construct: TVMV protease site linker (C); made in house; host or cells: HEK293T cells
T1 sequence (Q9NZQ7 18-239): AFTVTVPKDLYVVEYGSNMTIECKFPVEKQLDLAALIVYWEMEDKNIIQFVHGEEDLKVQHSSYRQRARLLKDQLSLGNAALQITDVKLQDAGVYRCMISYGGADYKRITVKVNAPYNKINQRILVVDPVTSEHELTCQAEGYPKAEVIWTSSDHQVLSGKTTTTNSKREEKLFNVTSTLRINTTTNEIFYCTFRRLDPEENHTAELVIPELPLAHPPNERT
Source text: The ability of the compounds of formula (I) to bind to PD-L1 was investigated using a PD-1/PD-L1 Homogenous Time-Resolved Fluorescence (HTRF) binding assay.
Homogenous Time-Resolved Fluorescence (HTRF) Binding Assay
The interaction of PD-1 and PD-L1 can be assessed using soluble, purified preparations of the extracellular domains of the two proteins. The PD-1 and PD-L1 protein extracellular domains were expressed as fusion proteins with detection tags, for PD-1, the tag was the Fc portion of Immunoglobulin (PD-1-Ig) and for PD-L1 it was the 6 histidine motif (PD-L1-His). All binding studies were performed in an HTRF assay buffer consisting of dPBS supplemented with 0.1% […] bovine serum albumin and 0.05% (v/v) Tween-20. For the h/PD-L1-His binding assay, inhibitors were pre-incubated with PD-L1-His (10 nM final) for 15 m in 4 μl of assay buffer, followed by addition of PD-1-Ig (20 nM final) in 1 μl of assay buffer and further incubation for 15m. HTRF detection was achieved using europium crypate-labeled anti-Ig (1 nM final) and allophycocyanin (APC) labeled anti-His (20 nM final). Antibodies were diluted in HTRF detection buffer and 5 μl was dispensed on top of the binding reaction. The reaction mixture was allowed to equilibrate for 30 minutes and the resulting signal (665 nm/620 nm ratio) was obtained using an EnVision fluorometer. Additional binding assays were established between the human proteins PD-1-Ig/PD-L2-His (20 & 5 nM, respectively) and CD80-His/PD-L1-Ig (100 & 10 nM, respectively).
Recombinant Proteins: Human PD-1 (25-167) with a C-terminal human Fc domain of immunoglobulin G (Ig) epitope tag [hPD-1 (25-167)-3S-IG] and human PD-L1 (18-239) with a C-terminal His epitope tag [hPD-L1(18-239)-TVMV-His] were expressed in HEK293T cells and purified sequentially by ProteinA affinity chromatography and size exclusion chromatography. Human PD-L2-His and CD80-His was obtained through commercial sources.
Table 1 lists the IC50 values for representative examples of this disclosure measured in the PD-1/PD-L1 Homogenous Time-Resolved Fluorescence (HTRF) binding assay.

Row | Compound | IC50
1 | CCCC[C@H]1C(=O)N(C)[C@@H](CCCC)C(=O)N[C@@H](CC(C)C)C(=O)N[C@H](C(=O)NCC(N)=O)CSCC(=O)N[C@@H](Cc2ccc(O)cc2)C(=O)N(C)[C@@H](C)C(=O)N[C@@H](CC(N)=O)C(=O)N2CCC[C@H]2C(=O)N[C@@H](CNC(=O)C(=O)Nc2cc(F)cc(F)c2)C(=O)N[C@@H](CC(C)C)C(=O)N2C[C@H](O)C[C@H]2C(=O)N[C@@H](Cc2c[nH]c3ccccc23)C(=O)N[C@@H](CCNC(=O)C(=O)Nc2cc(F)cc(F)c2)C(=O)N[C@@H](Cc2cn(CC(=O)OC)c3ccccc23)C(=O)N1C [Compound 2002] ({CH2CO}-Y[NMeA]NP[Dap](X8)L[Hyp]W[Dab](X8)[Trp(1-CH2CO2Me)][NMeNle][NMeNle]LCG-NH2; thioether N-14) | 350 nM
2 | CCCC[C@H]1C(=O)N(C)[C@@H](CCCC)C(=O)N[C@@H](CC(C)C)C(=O)N[C@H](C(=O)NCC(N)=O)CSCC(=O)N[C@@H](Cc2ccc(O)cc2)C(=O)N(C)[C@@H](C)C(=O)N[C@@H](CC(N)=O)C(=O)N2CCC[C@H]2C(=O)N[C@@H](CNC(=O)C(=O)Oc2ccccc2)C(=O)N[C@@H](CC(C)C)C(=O)N2C[C@H](O)C[C@H]2C(=O)N[C@@H](Cc2c[nH]c3ccccc23)C(=O)N[C@@H](CCNC(=O)C(=O)Oc2ccccc2)C(=O)N[C@@H](Cc2cn(CC(=O)O)c3ccccc23)C(=O)N1C [Compound 1001] ({CH2CO}-Y[NMeA]NP[Dap](X1)L[Hyp]W[Dab](X1)[Trp(1-CH2COOH)][NMeNle][NMeNle]LCG-NH2; thioether N-14) | 5.4 nM
3 | CCCC[C@H]1C(=O)N(C)[C@@H](CCCC)C(=O)N[C@@H](CC(C)C)C(=O)N[C@H](C(=O)NCC(N)=O)CSCC(=O)N[C@@H](Cc2ccc(O)cc2)C(=O)N(C)[C@@H](C)C(=O)N[C@@H](CC(N)=O)C(=O)N2CCC[C@H]2C(=O)N[C@@H](CNC(=O)C(=O)OC)C(=O)N[C@@H](CC(C)C)C(=O)N2C[C@H](O)C[C@H]2C(=O)N[C@@H](Cc2c[nH]c3ccccc23)C(=O)N[C@@H](CCNC(=O)C(=O)OC)C(=O)N[C@@H](Cc2cn(CC(=O)OC)c3ccccc23)C(=O)N1C [Compound 3001] ({CH2CO}-Y[NMeA]NP[Dap](Methoxyoxalyl)L[Hyp]W[Dab](Methoxyoxalyl)[Trp(1-CH2CO2Me)][NMeNle][NMeNle]LCG-NH2; thioether N-14) | 6.3 nM
4 | CCCC[C@H]1C(=O)N(C)[C@@H](CCCC)C(=O)N[C@@H](CC(C)C)C(=O)N[C@H](C(=O)NCC(N)=O)CSCC(=O)N[C@@H](Cc2ccc(O)cc2)C(=O)N(C)[C@@H](C)C(=O)N[C@@H](CC(N)=O)C(=O)N2CCC[C@H]2C(=O)N[C@@H](CNC(=O)C(=O)NCc2ccc(F)cc2)C(=O)N[C@@H](CC(C)C)C(=O)N2C[C@H](O)C[C@H]2C(=O)N[C@@H](Cc2c[nH]c3ccccc23)C(=O)N[C@@H](CCNC(=O)C(=O)NCc2ccc(F)cc2)C(=O)N[C@@H](Cc2cn(CC(=O)OC)c3ccccc23)C(=O)N1C [Compound 2009] ({CH2CO}-Y[NMeA]NP[Dap](X3)L[Hyp]W[Dab](X3)[Trp(1-CH2CO2Me)][NMeNle][NMeNle]LCG-NH2; thioether N-14) | 1.2 nM
5 | CCCC[C@H]1C(=O)N(C)[C@@H](CCCC)C(=O)N[C@@H](CC(C)C)C(=O)N[C@H](C(=O)NCC(N)=O)CSCC(=O)N[C@@H](Cc2ccc(O)cc2)C(=O)N(C)[C@@H](C)C(=O)N[C@@H](CC(N)=O)C(=O)N2CCC[C@H]2C(=O)N[C@@H](CNC(=O)C(=O)N2CCN(C)CC2)C(=O)N[C@@H](CC(C)C)C(=O)N2C[C@H](O)C[C@H]2C(=O)N[C@@H](Cc2c[nH]c3ccccc23)C(=O)N[C@@H](CCNC(=O)C(=O)N2CCN(C)CC2)C(=O)N[C@@H](Cc2cn(CC(=O)OC)c3ccccc23)C(=O)N1C [Compound 2007] ({CH2CO}-Y[NMeA]NP[Dap](X6)L[Hyp]W[Dab](X6)[Trp(1-CH2CO2Me)][NMeNle][NMeNle]LCG-NH2; thioether N-14) | 9.1 nM
